Laboratory results taken from USRE39591E1, “6-O-substituted ketolides having antibacterial activity” (Abbott Laboratories, priority 1996, dated 2007).
≈ marks a conversion by molar mass, not a printed value.

Tested on: up to 32 different microorganisms
Assay: in vitro antibacterial activity (MIC), agar dilution on Brain Heart Infusion (BHI) agar with Steers replicator
Type: cell-based
Conditions: unit assumed
Method in brief: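 Twelve plates carried successive aqueous dilutions of test compound in BHI agar; inocula were 1:100 dilutions (1:10 for slow growers such as Micrococcus, Streptococcus), incubated 35°-37° C for 20 to 24 hours. MIC was the lowest concentration giving no growth, slight haze, or sparse isolated colonies versus growth control.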

[1] = Candida albicans CCH 442 (code TT)
[2] = Enterococcus faecism ATCC 8043 (code II)
[3] = Escherichia coli DC-2 (code SS)
[4] = Escherichia coli JUHL (code QQ)
[5] = Micrococcus luteus ATCC 4698 (code PP)
[6] = Micrococcus luteus ATCC 9341 (code OO)
[7] = Mycobacterium smegmatis ATCC 114 (code UU)
[8] = Nocardia Asteroides ATCC9970 (code VV)
[9] = Staphylococcus aureus 1775 (code GG)
[10] = Staphylococcus aureus A5177 (code BB)
[11] = Staphylococcus aureus A-5278 (code CC)
[12] = Staphylococcus aureus ATCC 6538P (code AA)
[13] = Staphylococcus aureus CMX 553 (code FF)
[14] = Staphylococcus aureus CMX 642A (code DD)
[15] = Staphylococcus aureus NCTC10649M (code EE)
[16] = Staphylococcus epidermidis 3519 (code HH)
[17] = Streptococcus agalactiae CMX 508 (code KK)
[18] = Streptococcus bovis A-5169 (code JJ)
[19] = Streptococcus pyogenes 930 (code MM)
[20] = Streptococcus pyogenes EES61 (code LL)
[21] = Streptococcus pyogenes PIU 2548 (code NN)

`CCC1OC(=O)C(C)C(=O)C(C)C(OC2OC(C)CC(N(C)C)C2O)C(C)(OCC=Cc2cnc3ccc(O)cc3c2)CC(C)C(=O)C(C)C2NC(=O)OC12C` (stereo not drawn) [Example 208, R is —CH2CH═CH-(6-hydroxy-3-quinolyl)] gave an MIC (organism code AA) of 0.1 µg/mL (≈ 0.128 µM), an MIC (organism code BB) of 0.39 µg/mL (≈ 0.499 µM) and an MIC (organism code CC) greater than 100 µg/mL. The MIC (organism code DD) was 0.2 µg/mL (≈ 0.256 µM), the MIC (organism code EE) was 0.2 µg/mL (≈ 0.256 µM) and the MIC (organism code FF) was 0.2 µg/mL (≈ 0.256 µM). The MIC (organism code GG) was greater than 100 µg/mL, the MIC (organism code HH) was 0.2 µg/mL (≈ 0.256 µM) and the MIC (organism code II) was 0.1 µg/mL (≈ 0.128 µM). It also gave an MIC (organism code JJ) of 0.01 µg/mL (≈ 0.0128 µM), an MIC (organism code KK) of 0.01 µg/mL (≈ 0.0128 µM) and an MIC (organism code LL) of 0.01 µg/mL (≈ 0.0128 µM). It also gave an MIC (organism code MM) of 0.78 µg/mL (≈ 0.998 µM), an MIC (organism code NN) of 0.39 µg/mL (≈ 0.499 µM) and an MIC (organism code OO) of 0.01 µg/mL (≈ 0.0128 µM). For the same molecule, the MIC (organism code PP) was 0.1 µg/mL (≈ 0.128 µM), the MIC (organism code QQ) was 25 µg/mL (≈ 32 µM) and the MIC (organism code RR) was 0.39 µg/mL (≈ 0.499 µM). For the same molecule, the MIC (organism code SS) was 50 µg/mL (≈ 63.9 µM), the MIC (organism code TT) was greater than 100 µg/mL and the MIC (organism code UU) was 0.78 µg/mL (≈ 0.998 µM). For the same molecule, the MIC (organism code VV) was 0.2 µg/mL (≈ 0.256 µM), the MIC (organism code WW) was 2 µg/mL (≈ 2.56 µM) and the MIC (organism code XX) was 0.03 µg/mL (≈ 0.0384 µM). The MIC (organism code YY) was 0.03 µg/mL (≈ 0.0384 µM), the MIC (organism code ZZ) was 4 µg/mL (≈ 5.12 µM) and the MIC (organism code ZZA) was 1 µg/mL (≈ 1.28 µM).

`CC[C@H]1OC(=O)[C@H](C)C(=O)[C@H](C)[C@@H](O[C@@H]2O[C@H](C)C[C@H](N(C)C)[C@H]2O)[C@@](C)(OCC#Cc2cnc3ccc([N+](=O)[O-])cc3c2)C[C@@H](C)C(=O)[C@H](C)[C@H]2NC(=O)O[C@@]21C` [Example 248, Compound of Formula (IX): L is CO, T is NH, R is —CH2—C≡C-(6-nitro-3-quinolyl)] was tested, and the MIC (organism code AA) was 0.05 µg/mL, the MIC (organism code BB) was 0.05 µg/mL and the MIC (organism code CC) was greater than 100 µg/mL. It also gave an MIC (organism code DD) of 0.05 µg/mL, an MIC (organism code EE) of 0.05 µg/mL and an MIC (organism code FF) of 0.02 µg/mL. It also gave an MIC (organism code GG) greater than 100 µg/mL, an MIC (organism code HH) of 0.05 µg/mL and an MIC (organism code II) of 0.02 µg/mL. It also gave an MIC (organism code JJ) of 0.02 µg/mL, an MIC (organism code KK) of no more than 0.005 µg/mL and an MIC (organism code LL) of no more than 0.005 µg/mL. For the same molecule, the MIC (organism code MM) was 0.39 µg/mL, the MIC (organism code NN) was 0.1 µg/mL and the MIC (organism code OO) was 0.02 µg/mL. For the same molecule, the MIC (organism code PP) was 0.1 µg/mL, the MIC (organism code QQ) was 50 µg/mL and the MIC (organism code RR) was 0.39 µg/mL. For the same molecule, the MIC (organism code SS) was 50 µg/mL, the MIC (organism code TT) was greater than 100 µg/mL and the MIC (organism code UU) was 0.39 µg/mL. For the same molecule, the MIC (organism code VV) was 0.02 µg/mL, the MIC (organism code WW) was 3 µg/mL and the MIC (organism code XX) was 0.03 µg/mL. The MIC (organism code YY) was 0.03 µg/mL, the MIC (organism code ZZ) was 4 µg/mL and the MIC (organism code ZZA) was 0.25 µg/mL.

Molecule `CCC1OC(=O)C(C)C(=O)C(C)C(OC2OC(C)CC(N(C)C)C2O)C(C)(OCC=Cc2ccc3[nH]ccc3c2)CC(C)C(=O)C(C)C2NC(=O)OC12C` (stereo not drawn) [Example 190, R is —CH2CH═CH-(5-indolyl)] has an MIC [1] greater than 100 µg/mL, an MIC [2] of 0.02 µg/mL (≈ 0.0265 µM) and an MIC [3] of 100 µg/mL (≈ 133 µM). For the same molecule, the MIC [4] was 100 µg/mL (≈ 133 µM), the MIC (Escherichia coli SS (code RR)) was 0.2 µg/mL (≈ 0.265 µM) and the MIC (Haemophilis influenzae DILL AMP R (code WW)) was 4 µg/mL (≈ 5.31 µM). The MIC [5] was 0.1 µg/mL (≈ 0.133 µM), the MIC [6] was 0.01 µg/mL (≈ 0.0133 µM) and the MIC [7] was 0.78 µg/mL (≈ 1.03 µM). The MIC [8] was 0.1 µg/mL (≈ 0.133 µM), the MIC [9] was greater than 100 µg/mL and the MIC [10] was 0.05 µg/mL (≈ 0.0663 µM). The MIC [11] was greater than 100 µg/mL, the MIC [12] was 0.05 µg/mL (≈ 0.0663 µM) and the MIC [13] was 0.02 µg/mL (≈ 0.0265 µM). The MIC [14] was 0.05 µg/mL (≈ 0.0663 µM), the MIC [15] was 0.02 µg/mL (≈ 0.0265 µM) and the MIC [16] was 0.05 µg/mL (≈ 0.0663 µM). It also gave an MIC (Streptococcus Pneumonia 5649 (code ZZA)) of 0.5 µg/mL (≈ 0.663 µM), an MIC (Streptococcus Pneumonia 5979 (code ZZ)) greater than 128 µg/mL and an MIC (Streptococcus Pneumonia ATCC6303 (code XX)) of 0.06 µg/mL (≈ 0.0796 µM). The MIC (Streptococcus Pneumonia GYR 1171 (code YY)) was 0.03 µg/mL (≈ 0.0398 µM), the MIC [17] was no more than 0.005 µg/mL and the MIC [18] was no more than 0.005 µg/mL. The MIC [19] was 12.5 µg/mL (≈ 16.6 µM), the MIC [20] was no more than 0.005 µg/mL and the MIC [21] was 0.1 µg/mL (≈ 0.133 µM).

For `CCC1OC(=O)C(C)C(=O)C(C)C(OC2OC(C)CC(N(C)C)C2O)C(C)(OCC=Cc2ccc(F)c3ccccc23)CC(C)C(=O)C(C)C2NC(=O)OC12C` (stereo not drawn) [Example 279, Compound of Formula (IX): L is CO, T is NH2, R is —CH2CH═CH-(4-fluoronaphthyl)], the MIC (organism code AA) was 0.39 µg/mL, the MIC (organism code BB) was 0.39 µg/mL and the MIC (organism code CC) was 50 µg/mL. For the same molecule, the MIC (organism code DD) was 0.78 µg/mL, the MIC (organism code EE) was 0.39 µg/mL and the MIC (organism code FF) was 0.39 µg/mL. For the same molecule, the MIC (organism code GG) was 50 µg/mL, the MIC (organism code HH) was 0.39 µg/mL and the MIC (organism code II) was 0.2 µg/mL. The MIC (organism code JJ) was 0.05 µg/mL, the MIC (organism code KK) was 0.02 µg/mL and the MIC (organism code MM) was 25 µg/mL. For the same molecule, the MIC (organism code NN) was 0.39 µg/mL, the MIC (organism code OO) was 0.05 µg/mL and the MIC (organism code PP) was 0.39 µg/mL. For the same molecule, the MIC (organism code QQ) was greater than 100 µg/mL, the MIC (organism code RR) was 1.56 µg/mL and the MIC (organism code SS) was greater than 100 µg/mL. For the same molecule, the MIC (organism code TT) was greater than 100 µg/mL, the MIC (organism code UU) was 0.78 µg/mL and the MIC (organism code VV) was 0.78 µg/mL. The MIC (organism code WW) was 8 µg/mL, the MIC (organism code XX) was 0.03 µg/mL and the MIC (organism code YY) was 0.03 µg/mL. The MIC (organism code ZZ) was 32 µg/mL and the MIC (organism code ZZA) was 0.5 µg/mL.

`CC[C@H]1OC(=O)[C@H](C)C(=O)[C@H](C)[C@@H](O[C@@H]2O[C@H](C)C[C@H](N(C)C)[C@H]2O)[C@@](C)(OCC#N)C[C@@H](C)C(=O)[C@H](C)[C@@H](O)[C@]1(C)O` [Example 7, Compound of Formula (VIII): X is O, R is —CH2CN] gave an MIC [1] greater than 100 µg/mL, an MIC [2] of 1.56 µg/mL and an MIC [3] greater than 100 µg/mL. The MIC [4] was greater than 100 µg/mL, the MIC (Escherichia coli SS (code RR)) was 3.1 µg/mL and the MIC [5] was 1.56 µg/mL. For the same molecule, the MIC [6] was 0.39 µg/mL, the MIC [7] was greater than 100 µg/mL and the MIC [8] was 0.78 µg/mL. It also gave an MIC [9] greater than 100 µg/mL, an MIC [10] of 3.1 µg/mL and an MIC [11] greater than 100 µg/mL. The MIC [12] was 3.1 µg/mL, the MIC [13] was 3.1 µg/mL and the MIC [14] was 3.1 µg/mL. It also gave an MIC [15] of 3.1 µg/mL, an MIC [16] of 3.1 µg/mL and an MIC [17] of 0.78 µg/mL. For the same molecule, the MIC [18] was 0.78 µg/mL, the MIC [19] was greater than 100 µg/mL and the MIC [20] was 1.56 µg/mL. The MIC [21] was 3.1 µg/mL.
